Experimental data as given in patent US8846908B2, “Tricyclic carbamate JAK inhibitors” (Rigel Pharmaceuticals, Inc., priority 2008, dated 2014).

Target: BaF3 V617F cells (Homo sapiens, UniProt O60674, V617F, cells depend on it)
Assay: Proliferation assay, BaF3 V617F cells (Cell Titer-Glo)
Assay type: cell-based, mouse
Settings: proliferation for 72 hours at 37° C., stated to show ability to inhibit JAK2 activity, read-out: IC50 (the source's name)
Description: BaF3 V617F cells are maintained and plated in RPMI with 10% FBS. Plating density for these cells is 1×10^5 cells/mL.
The cells were resuspended in a corresponding medium at a required cell density (see above). 100μ of cell suspension was added to each well of a flat bottom 96 well white plate. The compound was serially diluted in DMSO from 5 mM in 3-fold dilutions, and then diluted 1:250 in the RPMI 1640 medium containing 5% FBS and pen/strep. 100 μL of resulting 2× compound solution was added per well in duplicate and the cells were allowed to proliferate for 72 hours at 37° C.
Proliferation was measured using Cell Titer-Glo. The substrate was thawed and allowed to come to room temperature. After removal of top 100 μL of medium from each well, 100 μL of the premixed Cell Titer-Glo reagent was added to each well. The plates were mixed on an orbital shaker for three minutes to induce lysis and incubated at ambient temperature for an additional five minutes to allow the signal to equilibrate. The Luminescence was read on the Wallac Plate Reader.
The results of the ability of the compounds of the invention to inhibit JAK2 activity, when tested in the above assay, are shown in the following Table 2 wherein the level of activity (i.e., the IC50) for each compound is indicated in Table 2. The compound numbers in Table 2 refers to the compounds disclosed herein as being prepared by the methods disclosed herein.

BaF3 V617F cells, sequence (O60674 whole entry V617F): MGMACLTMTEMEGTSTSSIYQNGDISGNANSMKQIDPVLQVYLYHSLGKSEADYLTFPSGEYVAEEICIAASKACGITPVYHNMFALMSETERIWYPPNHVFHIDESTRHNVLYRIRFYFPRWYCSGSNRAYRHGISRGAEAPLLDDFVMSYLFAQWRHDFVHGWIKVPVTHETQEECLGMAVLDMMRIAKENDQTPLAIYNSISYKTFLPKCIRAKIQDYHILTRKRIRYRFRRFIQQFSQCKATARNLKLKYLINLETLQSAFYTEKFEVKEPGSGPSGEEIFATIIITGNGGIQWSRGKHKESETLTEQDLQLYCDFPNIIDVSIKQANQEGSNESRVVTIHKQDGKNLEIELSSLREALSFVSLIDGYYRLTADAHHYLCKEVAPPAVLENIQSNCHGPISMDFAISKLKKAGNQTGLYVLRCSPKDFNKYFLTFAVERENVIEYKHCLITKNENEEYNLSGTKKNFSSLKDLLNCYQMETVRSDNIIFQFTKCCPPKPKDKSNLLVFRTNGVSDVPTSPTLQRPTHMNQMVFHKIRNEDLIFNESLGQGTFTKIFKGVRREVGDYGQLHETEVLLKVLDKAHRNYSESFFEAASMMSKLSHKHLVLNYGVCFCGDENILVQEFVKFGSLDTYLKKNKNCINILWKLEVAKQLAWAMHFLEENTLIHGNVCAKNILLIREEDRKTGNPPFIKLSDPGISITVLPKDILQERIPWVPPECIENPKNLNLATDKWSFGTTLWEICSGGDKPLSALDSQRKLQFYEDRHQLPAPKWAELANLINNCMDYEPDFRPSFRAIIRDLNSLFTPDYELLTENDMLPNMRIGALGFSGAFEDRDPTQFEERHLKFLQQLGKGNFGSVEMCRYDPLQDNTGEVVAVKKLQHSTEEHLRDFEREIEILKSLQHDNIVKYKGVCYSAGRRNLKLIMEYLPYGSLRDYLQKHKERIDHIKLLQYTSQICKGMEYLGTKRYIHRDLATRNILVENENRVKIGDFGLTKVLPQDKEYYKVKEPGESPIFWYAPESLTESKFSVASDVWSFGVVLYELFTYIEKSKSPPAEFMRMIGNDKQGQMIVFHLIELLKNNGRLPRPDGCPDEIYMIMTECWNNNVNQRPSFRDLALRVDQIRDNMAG

| Structure (SMILES) | GI50 [nM] |
| --- | --- |
| Cc1cnc(Nc2ccc3c(c2)[C@@H]2NC(=O)O[C@@H]2C3)nc1Nc1ccc(OCc2ccccn2)cc1 [Compound 28, 5-Methyl-N2-[(3aS,8aR)-2-oxo-3,3a,8,8a-tetrahydro-2H-indeno[1,2-d]oxazol-5-yl]-N4-[4-(pyridin-2-ylmethoxy)phenyl]-2,4-pyrimidinediamine] | 250 to 500 |
| O=C1N[C@@H]2c3cc(Nc4ncc(F)c(Nc5ccc(CCc6ccncc6)cc5)n4)ccc3C[C@@H]2O1 [Compound 29, 5-Fluoro-N2-[(3aR,8aS)-2-oxo-3,3a,8,8a-tetrahydro-2H-indeno[1,2-d]oxazol-5-yl]-N4-[4-[2-(pyridin-4-yl)ethyl]phenyl]-2,4-pyrimidinediamine] | 250 to 500 |
| O=C1N[C@H]2c3cc(Nc4ncc(F)c(Nc5ccc(OCc6ccccn6)cc5)n4)ccc3C[C@H]2O1 [Compound 30, 5-Fluoro-N2-[(3aS,8aR)-2-oxo-3,3a,8,8a-tetrahydro-2H-indeno[1,2-d]oxazol-5-yl]-N4-[4-(pyridin-2-ylmethoxy)phenyl]-2,4-pyrimidinediamine] | 1000 to 5000 |
| Cc1cnc(Nc2ccc3c(c2)[C@H]2NC(=O)O[C@H]2C3)nc1Nc1ccc(OCc2cccnc2)cc1 [Compound 31, 5-Methyl-N2-[(3aR,8aS)-2-oxo-3,3a,8,8a-tetrahydro-2H-indeno[1,2-d]oxazol-5-yl]-N4-[4-(pyridin-3-ylmethoxy)phenyl]-2,4-pyrimidinediamine] | 250 to 500 |
| Cc1cnc(Nc2ccc3c(c2)[C@@H]2NC(=O)O[C@@H]2C3)nc1Nc1ccc(OCc2cccnc2)cc1 [Compound 32, 5-Methyl-N2-[(3aS,8aR)-2-oxo-3,3a,8,8a-tetrahydro-2H-indeno[1,2-d]oxazol-5-yl]-N4-[4-(pyridin-3-ylmethoxy)phenyl]-2,4-pyrimidinediamine] | 250 to 500 |
| O=C1N[C@H]2c3cc(Nc4ncc(F)c(Nc5ccc(CCc6ccncc6)cc5)n4)ccc3C[C@H]2O1 [Compound 33, 5-Fluoro-N2-[(3aS,8aR)-2-oxo-3,3a,8,8a-tetrahydro-2H-indeno[1,2-d]oxazol-5-yl]-N4-[4-[2-(pyridin-4-yl)ethyl]phenyl]-2,4-pyrimidinediamine] | 250 to 500 |
| O=C1N[C@@H]2c3cc(Nc4ncc(Cl)c(Nc5cccc6c5CCC6)n4)ccc3CC2O1 (stereo partly drawn) [Compound 34, 5-Chloro-N4-(indan-4-yl]-5-methyl-N2-[(3aR,8aS)-2-oxo-3,3a,8,8a-tetrahydro-2H-indeno[1,2-d]oxazol-5-yl]-2,4-pyrimidinediamine] | ≥ 5000 |
| Cc1cnc(Nc2ccc3c(c2)[C@H]2NC(=O)O[C@H]2C3)nc1Nc1cccc2c1CCC2 [Compound 35, N4-(Indan-4-yl]-5-methyl-N2-[(3aR,8aS)-2-oxo-3,3a,8,8a-tetrahydro-2H-indeno[1,2-d]oxazol-5-yl]-2,4-pyrimidinediamine] | < 250 |
| O=C1N[C@@H]2c3cc(Nc4ncc(Cl)c(Nc5cccc6c5CCCC6)n4)ccc3C[C@@H]2O1 [Compound 36, 5-Chloro-N2-[(3aR,8aS)-2-oxo-3,3a,8,8a-tetrahydro-2H-indeno[1,2-d]oxazol-5-yl]-N4-(5,6,7,8-tetrahydronaphthalen-1-yl)2,4-pyrimidinediamine] | 250 to 500 |
| Cc1cnc(Nc2ccc3c(c2)[C@H]2NC(=O)O[C@H]2C3)nc1Nc1cccc2c1CCCC2 [Compound 37, 5-Methyl-N2-[(3aR,8aS)-2-oxo-3,3a,8,8a-tetrahydro-2H-indeno[1,2-d]oxazol-5-yl]-N4-(5,6,7,8-tetrahydronaphthalen-1-yl)-2,4-pyrimidinediamine] | < 250 |
| Cc1cnc(Nc2ccc3c(c2)[C@H]2NC(=O)CO[C@H]2C3)nc1Nc1ccc2c(c1)N(C)C(=O)C(C)(C)O2 [Compound 38, 5-Methyl-N2-[(4aR,9aS)-3-oxo-2,3,4,4a,9a-hexahydroindeno[2,1-b][1,4]oxazin-6-yl]-N4-(2,2,4-trimethyl-3-oxo-benz[1,4]oxazin-6-yl)-2,4-pyrimidinediamine] | 250 to 500 |
| Cc1cnc(Nc2ccc3c(c2)[C@H]2NC(=O)CO[C@H]2C3)nc1Nc1ccc(CNS(=O)(=O)C2CC2)cc1 [Compound 39, N4-[4-[[N-(Cyclopropylsulfonyl)amino]methyl]phenyl]-5-methyl-N2-[(4aR,9aS)-3-oxo-2,3,4,4a,9a-hexahydroindeno[2,1-b][1,4]oxazin-6-yl]-2,4-pyrimidinediamine] | 250 to 500 |
| O=C1CO[C@H]2Cc3ccc(Nc4ncc(Cl)c(Nc5ccc(CNS(=O)(=O)C6CC6)cc5)n4)cc3[C@H]2N1 [Compound 40, 5-Chloro-N4-[4-[[N-(cyclopropylsulfonyl)amino]methyl]phenyl]-N2-[(4aR,9aS)-3-oxo-2,3,4,4a,9a-hexahydroindeno[2,1-b][1,4]oxazin-6-yl]-2,4-pyrimidinediamine] | < 250 |
